Some test systems named below: LOX IMVI melanoma; LXFL 529 NSCLC; M19-MEL melanoma; MDA-MB-231 breast; RXF-631 renal; A549 NSCLC; NCI-H460 lung; MCF7 breast; KM20L2 colon; SK-MEL-2 melanoma; MALME-3M melanoma; SF-539 CNS; MDA-MB-435; HOP-92 NSCLC; RPMI-8226 leukemia; BT-549 breast; PC-3 prostate; SN12C renal; MOLT-4 leukemia; HCT-15 colon.
Common to all, as to experiment: NCI tumour cell line growth inhibition, 48 h

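Briefly, cells in 96-well plates were exposed to five compound concentrations for 48 h, and endpoints were estimated by linear interpolation. TGI: total growth inhibition.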

In the case of `COc1ccc2nc3ccccc3c(NCCCCCCN(CCCl)CCCl)c2c1`, the TGI in the assay on LOX IMVI melanoma worked out at 0.0394 µM; in the assay with LXFL 529 NSCLC, 1.72 µM; with M19-MEL melanoma it was 5.12 µM; in the assay on MDA-MB-231 breast, 3.37 µM; in the assay on RXF-631 renal, 1.96 µM; with A549 NSCLC it was 6.06 µM. In addition, the TGI came out at 0.853 µM in the assay with NCI-H460 lung, 0.157 µM with MCF7 breast and 2.07 µM in the assay with KM20L2 colon.
As to `N=C(N)c1ccc(N=Nc2c(O)ccc3c2[nH]c2ccccc23)cc1`, the TGI is above 100 µM in the assay on SK-MEL-2 melanoma; above 80.8 µM with MALME-3M melanoma; above 100 µM in the assay with SF-539 CNS; above 39.6 µM in the assay on MDA-MB-435; above 100 µM in the assay with HOP-92 NSCLC; 5.07 µM in the assay with RPMI-8226 leukemia. Moreover, the TGI with BT-549 breast was 99.4 µM; in the assay with PC-3 prostate it was above 60.3 µM; in the assay on SN12C renal, above 83.4 µM; with MOLT-4 leukemia, 5.27 µM; in the assay on HCT-15 colon it was above 100 µM.
